Source: patent US11415579B2, “Assay for measuring a rate of reaction between a target and a ligand candidate” (Imperial College Innovations Ltd., priority 2016, dated 2022)

What was measured:
[1] = molecular target: T1, Cdk2(S181C) (C177A) (Homo sapiens, UniProt P24941, C177A/S181C); assay: Kinetic thiol consumption assay with Cdk2 mutant S181C; type: binding; parameters: key to Rate enhancement, Cdk2 S181C: rate constant with Cdk2 ÷ rate constant with model thiol (fold); conditions: additional mutation C177A; for Rate constant with Cdk2 S181C: Protein: Cdk2, cysteine position S181C, in h^-1
T1 construct: poly-histidine; made in house; host or cells: E. coli
Experimental: (§1) To wells containing 150 μL thiol (Cdk2 or model thiol) (5 μM) in degassed phosphate buffer (pH 8) was added immobilized TCEP beads (2% v/v).
(§2) After incubation of the fluorescence plates for 1 hour at room temperature, fluorescence measurements (excitation/emission of 380/470 nm) were taken on a PerkinElmer EnVision multilabel plate reader and processed with EnVision Workstation version 1.12.
(§3) Fluorescence measurements were normalized against a DMSO/thiol only control and plotted against time.
(§4) Rate constants were calculated using GraphPad software Prism version 6 by fitting a first order exponential decay to the data. The rate constant for each acrylamide with Cdk2 was divided by the rate constant for that fragment with the model thiol to provide the rate enhancement for each ligand candidate.
(§5) A further set of set of additional Cdk2 mutants were screened, all containing the C177A mutation and therefore with only one cysteine on the surface: • F80C (without the K278C mutation) • H71C • S276C • N272 • T182C • R122C • S181C
(§6) Mutations were introduced by site-directed mutagenesis and the resulting cDNA was cloned into the pRSETA bacterial expression vector to generate a poly-histidine tagged Cdk2 fusion that was purified from E. coli using standard techniques.

[2] = molecular target: T2, Cdk2(S276C) (C177A) (Homo sapiens, UniProt P24941, C177A/S276C); assay: Kinetic thiol consumption assay with Cdk2 mutant S276C; type: binding; parameters: key to Rate enhancement, Cdk2 S276C: rate constant with Cdk2 ÷ rate constant with model thiol (fold); conditions: additional mutation C177A; for Rate constant with Cdk2 S276C: Protein: Cdk2, cysteine position S276C, in h^-1
T2 construct: poly-histidine; made in house; host or cells: E. coli
Experimental: as §1, §2, §3, §4, §5, §6

[3] = molecular target: T3, Cdk2(R122C) (C177A) (Homo sapiens, UniProt P24941, C177A/R122C); assay: Kinetic thiol consumption assay with Cdk2 mutant R122C; type: binding; parameters: key to Rate enhancement, Cdk2 R122C: rate constant with Cdk2 ÷ rate constant with model thiol (fold); conditions: additional mutation C177A; for Rate constant with Cdk2 R122C: Protein: Cdk2, cysteine position R122C, in h-1
T3 construct: poly-histidine; made in house; host or cells: E. coli
Experimental: as §1, §2, §3, §4, §5, §6

[4] = molecular target: T4, Cdk2(H71C) (C177A) (Homo sapiens, UniProt P24941, C177A/H71C); assay: Kinetic thiol consumption assay with Cdk2 mutant H71C; type: binding; parameters: key to Rate enhancement, Cdk2 H71C: rate constant with Cdk2 ÷ rate constant with model thiol (fold); conditions: additional mutation C177A; for Rate constant with Cdk2 H71C: Protein: Cdk2, cysteine position H71C, in h^-1
T4 construct: poly-histidine; made in house; host or cells: E. coli
Experimental: as §1, §2, §3, §4, §5, §6

[5] = molecular target: T5, human cyclin-dependent kinase 2 (Cdk2) (Homo sapiens, UniProt P24941); assay: Kinetic thiol consumption assay with wild type Cdk2 (C177); type: binding; parameters: key to Rate enhancement, Cdk2 WT: k(Cdk2) divided by k(model thiol); Rate constant with Cdk2 (k(Cdk2)): unit not given here; conditions: for Rate constant with Cdk2 (k(Cdk2)): 500 μM ligand, 5 μM thiol, phosphate buffer pH 8; for Rate enhancement, Cdk2 WT: no additional mutations; for Rate constant with Cdk2 WT: Protein: Cdk2, cysteine position WT, in h^-1; for k(Cdk2)/k(GSH) rate enhancement: model thiol glutathione
T5 construct: poly-histidine; made in house; host or cells: E. coli
Experimental: (§7) A library of 120 acrylamides was screened against a) human cyclin-dependent kinase 2 (Cdk2, which contains one surface exposed cysteine residue—C177), prepared by cloning cDNA into the pRSETA bacterial expression vector to generate a poly-histidine tagged Cdk2 fusion that was purified from E. coli using standard techniques, and b) a model thiol (specific details are given below). The structures of these 120 acrylamides are set out in Table 1, above.
as §1, §2, §3, §4

[6] = molecular target: T6, Cdk2(N272C) (C177A) (Homo sapiens, UniProt P24941, C177A/N272C); assay: Kinetic thiol consumption assay with Cdk2 mutant N272C; type: binding; parameters: key to Rate enhancement, Cdk2 N272: rate constant with Cdk2 ÷ rate constant with model thiol (fold); conditions: for Rate enhancement, Cdk2 N272: Cdk2 N272, additional mutation C177A; for Rate constant with Cdk2 N272C: Protein: Cdk2, cysteine position N272C, additional mutation C177A, in h^-1
T6 construct: poly-histidine; made in house; host or cells: E. coli
Experimental: as §1, §2, §3, §4, §5, §6

[7] = molecular target: T7, Cdk2(C177A, F80C) (Homo sapiens, UniProt P24941, C177A/F80C); assay: Kinetic thiol consumption assay with Cdk2 mutant F80C, incl. kobs versus concentration (Kd, k2); type: binding; parameters: key to Rate enhancement, Cdk2 F80C: Cdk2 rate constant divided by model-thiol rate constant; conditions: additional mutation C177A; for Rate constant with Cdk2 F80C: Protein: Cdk2, cysteine position F80C, in h^-1
T7 construct: poly-histidine; made in house; host or cells: E. coli
Experimental: Therefore the assay can be used to calculate both k2 and Kd by experimentally determining kobs at a suitable range of ligand candidate concentrations. Typically Kd and k2 would then be determined by fitting a hyperbolic curve to a plot of kobs against ligand candidate concentration (FIG. 9).
as §1, §2, §3, §4, §5, §6
Rate constants were calculated as described in the methodology section of Examples 1 and 2.

[8] = molecular target: T8, Cdk2(T182C) (C177A) (Homo sapiens, UniProt P24941, C177A/T182C); assay: Kinetic thiol consumption assay with Cdk2 mutant T182C; type: binding; parameters: key to Rate enhancement, Cdk2 T182C: rate constant with Cdk2 ÷ rate constant with model thiol (fold); conditions: additional mutation C177A; for Rate constant with Cdk2 T182C: Protein: Cdk2, cysteine position T182C, in h^-1
T8 construct: poly-histidine; made in house; host or cells: E. coli
Experimental: as §1, §2, §3, §4, §5, §6

[9] = Kinetic thiol consumption assay with model thiol glutathione; type: physicochemical; parameters: Rate constant with glutathione (k(GSH)): unit not given here; conditions: for Rate constant with glutathione (k(GSH)): 500 μM ligand, 5 μM thiol, phosphate buffer pH 8; for Rate constant with Glutathione: Protein: Glutathione, cysteine position NA, in h-1
Experimental: as §7, §1, §2, §3, §4
The model thiol in Example 1 is glutathione (GSH). Hits were defined as fragments where kCdk2/kGSH>5.8 (empirically determined as 3 standard deviations over the mean).

SMILES | Rate enhancement, Cdk2 S181C [1] | Rate constant with Cdk2 S181C [1] | Rate enhancement, Cdk2 S276C [2] | Rate enhancement, Cdk2 R122C [3] | Rate constant with Cdk2 R122C [3] | Rate enhancement, Cdk2 H71C [4] | Rate constant with Cdk2 (k(Cdk2)) [5] | Rate enhancement, Cdk2 WT [5] | Rate constant with Cdk2 WT [5] | k(Cdk2)/k(GSH) rate enhancement [5] | Rate enhancement, Cdk2 N272 [6] | Rate constant with Cdk2 N272C [6] | Rate enhancement, Cdk2 F80C [7] | Rate enhancement, Cdk2 T182C [8] | Rate constant with Cdk2 T182C [8] | Rate constant with glutathione (k(GSH)) [9] | Rate constant with Glutathione [9] | Rate constant with Cdk2 S276C [2] | Rate constant with Cdk2 H71C [4] | Rate constant with Cdk2 F80C [7]
C=CC(=O)N1CC(OCCN(CC)CC)C1 [CA-145] | 2.572 | 0.008117 | 0 | 0.846 | 0.00267 | 0 | 0.00205 | 0.6483 | 0.002046 | 0.6425 | 1.155 | 0.003646 | 0 | 1.904 | 0.00601 | 0.00318 | 0.003156 |  |  | 
O=S1(=O)C=CC(Br)C1 (stereo not drawn) [EN010] | 0.3144 | 0.1896 | 0.9531 | 0.3799 | 0.2291 | 0.1025 |  | 2.833 | 1.708 |  | 0.198 | 0.1194 | 0.00861 | 4.219 | 2.544 |  | 0.603 | 0.5747 | 0.06183 | 0.005192
C=CC(=O)N(Cc1ccco1)C12CC3CC(CC(C3)C1)C2 [CA-157] | 0.9237 | 0.007651 | 68.22 | 0.376 | 0.003114 | 1.058 | 0.00288 | 1.257 | 0.01041 | 0.7234 | 87.21 | 0.7224 | 0.165 | 10.22 | 0.08469 | 0.00399 | 0.008283 | 0.5651 | 0.008761 | 0.001367
O=C(c1ccccc1)[C@@H]1O[C@H]1c1ccccc1 [EN006] | 4.709 | 0.01045 | 74.76 | 0.411 | 0.000912 | 12.95 |  | 1.315 | 0.002918 |  | 5.777 | 0.01282 | 7.7693E−12 | 34.33 | 0.07618 |  | 0.002219 | 0.1659 | 0.02873 | 1.724E−14
C=CC(=O)N(CC(=O)N1CCCC1)CC1CCCO1 (stereo not drawn) [CA-080] |  |  |  |  |  |  | 0.00195 |  |  | 0.2764 |  |  |  |  |  | 0.00706 |  |  |  | 
C=CC(=O)N(CC(=O)N1CCCC1)CC1CCCO1 (stereo not drawn) [CA-080/239] | 0.1377 | 0.001658 | 0.2885 | 0.173 | 0.002083 | 0 |  | 0.2317 | 0.00279 |  | 0.2756 | 0.003318 | 0.08364 | 0.9651 | 0.01162 |  | 0.01204 | 0.003474 |  | 0.001007
FC(F)(F)c1cc(Cl)ncc1Br [EN008] | 0.02434 | 0.001089 | 1.5439E−13 | 0 |  | 0 |  | 0 |  |  | 0.2037 | 0.009116 | 4.64 | 0.1321 | 0.005911 |  |  | 6.908E−15 |  | 0.2076
CN(C#N)Cc1ccccc1 [EN009] | 0.6302 | 0.004061 | 0.921 | 0.132 | 0.0008504 | 5.4624E−12 |  | 0 |  |  | 0 |  | 3.246 | 1.07 | 0.006898 |  |  | 0.005935 | 3.52E−14 | 0.02092
Cn1cc(S(=O)(=O)N2CCOCC2)cc1C(=O)NC(=O)CCl [EN002] | 0.2957 | 0.001495 | 0 | 0.1371 | 0.0006932 | 7.5652E−12 |  | 1.276 | 0.006451 |  | 1.133 | 0.00573 | 49.31 | 2.567 | 0.01298 |  |  |  | 3.825E−14 | 0.2493
N#Cc1ccncn1 [EN007] |  |  | 0 |  |  | 0 |  | 0 |  |  | 0 | 0.001652 | 0.9144 | 0.9515 | 0.001386 |  |  |  |  | 0.001332
